What was measured:
[1] = system: PC-3M-luc prostate cancer cells; assay: Cell viability assay (MTS) PC-3M-luc; assay type: cell-based; details: 72 h
Method in brief: (§1)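 HGC27 and PC-3M-luc cells (2000/well) were read by MTS after compound in 0.5% DMSO. W1 (10^4/well) and MCF-7 (2 × 10^3/well) were given half-log dilutions for 72 h, then MTT for 1 h, with absorbance at 570 nm minus 690 nm. Viability was fitted to a four-parameter logistic curve.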

[2] = system: MCF-7 breast cancer cells; assay: Cell viability assay (MTT) MCF-7; assay type: cell-based; details: Homo sapiens, MCF7, 72 h
Method in brief: as §1

Sirt3 = molecular target: T1, Sirt3 (Homo sapiens, UniProt Q9NTG7); assay: Sirt3 in vitro deacetylation assay (ZMAL); assay type: biochemical
T1 construct: the respective sirtuin (Sirt1_134–747, Sirt2_56–356, or Sirt3_118–395) was mixed with; made in house; host or cells: Escherichia coli BL21 Star (DE3)
T1 sequence (Q9NTG7 118-395): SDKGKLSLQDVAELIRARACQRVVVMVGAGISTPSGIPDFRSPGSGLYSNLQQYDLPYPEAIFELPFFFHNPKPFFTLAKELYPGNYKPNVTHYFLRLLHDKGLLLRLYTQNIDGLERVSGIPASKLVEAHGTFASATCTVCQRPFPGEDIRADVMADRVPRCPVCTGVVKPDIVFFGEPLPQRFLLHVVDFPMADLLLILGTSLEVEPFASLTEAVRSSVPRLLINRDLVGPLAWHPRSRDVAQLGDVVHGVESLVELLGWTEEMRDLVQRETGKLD

HDAC1 = molecular target: T2, HDAC1 (Homo sapiens, UniProt Q13547); assay: HDAC1 in vitro deacetylation assay (ZMAL); assay type: biochemical
T2 construct: purchased BPS Bioscience 50051
T2 sequence (Q13547 whole entry): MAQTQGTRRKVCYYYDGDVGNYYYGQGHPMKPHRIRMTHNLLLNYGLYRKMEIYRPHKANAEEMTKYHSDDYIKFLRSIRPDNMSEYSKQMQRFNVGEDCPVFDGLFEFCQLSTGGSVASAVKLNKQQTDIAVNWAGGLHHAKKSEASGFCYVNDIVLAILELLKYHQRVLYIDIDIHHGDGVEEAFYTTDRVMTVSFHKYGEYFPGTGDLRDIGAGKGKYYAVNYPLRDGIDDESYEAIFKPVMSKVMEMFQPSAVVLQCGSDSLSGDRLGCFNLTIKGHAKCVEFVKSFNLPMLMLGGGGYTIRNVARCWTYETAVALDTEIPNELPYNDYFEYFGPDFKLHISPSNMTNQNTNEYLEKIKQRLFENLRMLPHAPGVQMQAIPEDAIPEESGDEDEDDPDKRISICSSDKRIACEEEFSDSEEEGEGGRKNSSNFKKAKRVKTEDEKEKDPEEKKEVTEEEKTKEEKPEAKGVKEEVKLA

Sirt1 = molecular target: T3, Sirt1 (Homo sapiens, UniProt Q96EB6); assay: Sirt1 in vitro deacetylation assay (ZMAL); assay type: biochemical
T3 construct: the respective sirtuin (Sirt1_134–747, Sirt2_56–356, or Sirt3_118–395) was mixed with; made in house; host or cells: Escherichia coli BL21 Star (DE3)
T3 sequence (Q96EB6 134-747): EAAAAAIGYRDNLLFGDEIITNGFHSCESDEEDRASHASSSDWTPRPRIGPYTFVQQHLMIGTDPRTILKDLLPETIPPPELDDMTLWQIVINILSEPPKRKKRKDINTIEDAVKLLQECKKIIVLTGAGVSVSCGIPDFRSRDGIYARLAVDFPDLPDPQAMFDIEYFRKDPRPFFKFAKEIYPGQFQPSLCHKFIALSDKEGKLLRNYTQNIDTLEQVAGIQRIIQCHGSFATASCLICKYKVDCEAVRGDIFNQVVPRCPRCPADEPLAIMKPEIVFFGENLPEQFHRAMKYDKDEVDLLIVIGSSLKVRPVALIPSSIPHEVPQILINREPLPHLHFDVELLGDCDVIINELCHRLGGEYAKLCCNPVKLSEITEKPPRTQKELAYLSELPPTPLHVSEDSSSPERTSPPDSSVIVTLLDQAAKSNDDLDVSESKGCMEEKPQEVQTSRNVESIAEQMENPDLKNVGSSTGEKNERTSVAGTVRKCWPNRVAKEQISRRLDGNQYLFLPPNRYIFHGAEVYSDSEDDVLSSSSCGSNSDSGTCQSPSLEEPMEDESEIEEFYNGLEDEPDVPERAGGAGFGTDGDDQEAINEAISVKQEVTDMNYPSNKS

Sirt2 = molecular target: T4, Sirt2 (Homo sapiens, UniProt Q8IXJ6); assay: Cell-based NanoBRET assay for Sirt2 target engagement in HEK293T cells; details: tracer SirReal-TAMRA 2 μM, read-out: Cellular Sirt2 target engagement IC50 (NanoBRET)
T4 construct: expressed in transfected cells; host or cells: HEK293T
T4 sequence (Q8IXJ6 1-389): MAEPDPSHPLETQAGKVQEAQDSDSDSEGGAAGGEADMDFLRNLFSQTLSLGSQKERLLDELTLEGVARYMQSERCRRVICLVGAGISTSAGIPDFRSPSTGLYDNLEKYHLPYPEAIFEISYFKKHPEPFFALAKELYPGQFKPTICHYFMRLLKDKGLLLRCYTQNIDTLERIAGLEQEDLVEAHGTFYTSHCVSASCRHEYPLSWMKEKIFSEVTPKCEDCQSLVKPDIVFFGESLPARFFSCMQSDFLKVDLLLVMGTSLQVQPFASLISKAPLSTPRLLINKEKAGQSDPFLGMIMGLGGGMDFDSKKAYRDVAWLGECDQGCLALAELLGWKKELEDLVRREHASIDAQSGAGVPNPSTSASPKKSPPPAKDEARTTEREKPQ

Sirt2 (demyristoylation) = molecular target: T5, Sirt2 (demyristoylation) (Homo sapiens, UniProt Q8IXJ6); assay: Discontinuous Sirt2 demyristoylation assay (ZMML substrate); assay type: biochemical; details: mean ± SD
T5 construct: the respective sirtuin (Sirt1_134–747, Sirt2_56–356, or Sirt3_118–395) was mixed with; made in house; host or cells: Escherichia coli BL21 Star (DE3)
T5 sequence (Q8IXJ6 56-356): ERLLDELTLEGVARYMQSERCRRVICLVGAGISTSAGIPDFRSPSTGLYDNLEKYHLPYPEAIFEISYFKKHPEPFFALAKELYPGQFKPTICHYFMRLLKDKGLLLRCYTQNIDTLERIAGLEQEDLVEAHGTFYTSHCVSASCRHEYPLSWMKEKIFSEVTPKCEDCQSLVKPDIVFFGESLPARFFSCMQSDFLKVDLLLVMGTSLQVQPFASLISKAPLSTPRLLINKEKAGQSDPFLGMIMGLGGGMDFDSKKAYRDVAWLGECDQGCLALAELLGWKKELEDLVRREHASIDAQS

| EC50 ([1]; PC-3M-luc, read-out: PC-3M-luc cell viability EC50, MTS, mean ± SD) | EC50 ([2]; MTT, mean ± SD) | inhibition at 20 µM (Sirt3) | IC50 (HDAC1; deacetylation, mean ± SD) | inhibition at 20 µM (Sirt1) | IC50 (Sirt2) | IC50 (Sirt2 (demyristoylation)) | inhibition at 10 µM (HDAC1; @ 10 μM, read-out: HDAC1 percentual inhibition) | Compound | PC-3M-luc cellular effect ([1]; @ 50 μM) | inhibition at 100 µM ([2]; @ 0.1 mM, read-out: MCF-7 percentual inhibition) |
| --- | --- | --- | --- | --- | --- | --- | --- | --- | --- | --- |
| 30100 ± 3800 nM | 21100 ± 6700 nM | < 15% | 2200 ± 200 nM | < 15% | 560 nM | 9700 ± 1300 nM | – | CCCCN(Cc1ccc(C(=O)NO)cc1)C(=O)CCCCn1cc(COc2cccc(Cc3cnc(NC(=O)CSc4nc(C)cc(C)n4)s3)c2)nn1 [Compound 33, 4-((N-Butyl-5-(4-((3-((2-(2-((4,6-dimethylpyrimidin-2-yl)thio)acetamido)thiazol-5-yl)methyl)phenoxy)methyl)-1H-1,2,3-triazol-1-yl)pentanamido)methyl)-N-hydroxybenzamide] | – | – |
| – | – | < 15% | – | < 15% | 200 nM | 1400 ± 300 nM | 10% | Cc1cc(C)nc(SCC(=O)Nc2ncc(Cc3cccc(OCc4cn(Cc5ccccc5)nn4)c3)s2)n1 [Compound 4, SirReal1.1, reference compound] | ni ^b (ni = no inhibition (cellular effect <20% @ 50 μM)) | 3% |
